Laboratory results as given in patent US20250281419A1, “LIPID AMINES” (ModernaTX, Inc., priority 2021, published 2025).

Columns and labels:
HeLa cells [1] = assay: CFTR protein expression assay in HeLa cells (LNPs analogous to Example 4, lipid amine post-added); type: cell-based, Human; details: LNP prepared analogous to Example 4 with CFTR mRNA, vs buffer (PBS) control, 5 hr transfection, 24 hr incubation, N=4 wells
Method: Lipid nanoparticle compositions were prepared in a manner analogous to that in example 4. To evaluate LNP cellular uptake and protein expression In Vitro, HeLa cells from ATCC.org (ATCC CCL-2) was used. The cells were cultured in complete Minimum Essential Medium (MEM) and were plated in 96 well Cell Carrier Ultra plate with PDL coated surface (PerkinElmer) prior to running an experiment.
Buffer control (PBS) and LNPs encapsulating cystic fibrosis transmembrane conductance regulator (CFTR) mRNA were dosed with MEM media in the absence of serum (N=4 replicate wells). LNP transfected cells were incubated for 5 hr, followed by media removal and supplementation with complete MEM media. Cells were further incubated in complete MEM media overnight (24 hr).
Following 24 hr incubation, the cells were fixed with PFA and processed for immunofluorescence (IF) using an anti-CFTR rabbit monoclonal antibody. Briefly, the cells were permeabilized with 0.5% TX-100 for 10 min, blocked with 3% bovine serum albumin (BSA)+PBST for 1 hr at room temperature, and incubated with primary anti-CFTR monoclonal antibody overnight at 4° C. […] Cells were imaged using Opera Phoenix spinning disk confocal microscope (PerkinElmer), and CFTR protein expression was detected using the 488 nm channel. […]

HeLa cells [2] = assay: CFTR protein expression assay in HeLa cells (LNPs of Example 2, immunofluorescence); type: cell-based, Human; details: compared to buffer (PBS) control, 5 h transfection, 24 h incubation, N=4 wells
Method: Lipid nanoparticles were prepared using ethanol drop nanoprecipitation followed by solvent exchange into suitable aqueous buffer using dialysis. An exemplary lipid nanoparticle composition can be prepared by a process where lipids are dissolved in ethanol at a concentration of 12.5 mM and molar ratios of 33:15:11:39.5:1.5 (e.g., ionizable lipid:SA46:phospholipid:cholesterol:PL1). Lipid to mRNA is maintained at a N/P ratio of 4.9. Then mRNA is diluted with 25 mM sodium acetate (pH 5.0) and combined with the lipid mixture at a volume ratio of 3:1 (aqueous: ethanol). Resulting formulations are dialyzed against 20 mM tris/8% sucrose/70 mM sodium chloride (pH 7.4) at a volume of 300 times that of the primary product using Slide-A-Lyzer dialysis cassettes (Thermo Scientific, Rockford, IL, USA) with a molecular cutoff of 10 KDa for at least 18 h. The first dialysis is carried out at room temperature in a digital orbital shaker (VWR, Radnor, PA, USA) at 85 rpm for 3 h and then dialyzed overnight at 4° C. Formulations are concentrated using Amicon ultra-centrifugal filters (EMD Millipore, Billerica, MA, USA), passed through a 0.22-μm filter and stored at 4° C. until use. Lipid nanoparticle solutions are typically adjusted to specific mRNA concentrations between 0.1 and 1 mg/mL. LNPs were prepared according to Example 2. To evaluate LNP cellular uptake and protein expression in vitro, HeLa cells from ATCC.org (ATCC CCL-2) are used. The cells are cultured in complete Minimum Essential Medium (MEM) and are plated in 96 well Cell Carrier Ultra plate with PDL coated surface (PerkinElmer) prior to running an experiment. Buffer control (PBS) and LNPs encapsulating cystic fibrosis transmembrane conductance regulator (CFTR) mRNA were dosed with MEM media in the absence of serum (N=4 replicate wells). LNP transfected cells were incubated for 5 h, followed by media removal and supplementation with complete MEM media. Cells were further incubated in complete MEM media overnight (24 h). Following 24 hr incubation, the cells were fixed with PFA and processed for immunofluorescence (IF) using an anti-CFTR rabbit monoclonal antibody. Briefly, the cells were permeabilized with 0.5% TX-100 for 10 min, blocked with 3% bovine serum albumin (BSA)+PBST for 1 hr at room temperature, and incubated with primary anti-CFTR monoclonal antibody overnight at 4° C. Following primary antibody incubation, the cells were incubated with Alexa 488 conjugated secondary antibody for 30 min, and stained with DAPI and HCS CellMask Blue stain. Between different incubation steps the cells were either washed with PBS or PBST. Cells were imaged using Opera Phoenix spinning disk confocal microscope (PerkinElmer), and CFTR protein expression was detected using the 488 nm channel. The image analysis was performed in Harmony 4.9, with main analysis output being CFTR intensity per cell. The results shown in Table 3a show fold-change in CFTR signal intensity per cell compared to buffer (PBS) control (nanoparticle composition: IL1:Lipid Amine:DSPC:Chol:PL1). The results shown in Table 3b show fold-change in CFTR signal intensity per cell compared to buffer (PBS) control (nanoparticle composition: IL1:Lipid Amine:DPPC:Chol:PL1).

[3] = CFTR mRNA nanoparticle biophysical data (DLS, Ribogreen); type: physicochemical
Method: Lipids were dissolved in ethanol at a concentration of 24 mg/mL and molar ratios of 49.0:11.2:39.3:0.5 (IL1:DSPC:cholesterol:PEG-DMG-2K) and mixed with the acidification buffer (45 mM acetate buffer at pH 4). The lipid solution and acidification buffer were mixed using a multi-inlet vortex mixer at a 3:7 volumetric ratio of lipid:buffer for mixer 1 and mixer 2 and a 1:3 volumetric ratio of lipid:buffer (25% ethanol) for mixer 3. After a 5 second residence time, the resulting nanoparticles were mixed with 55 mM sodium acetate at pH 5.6 at a volumetric ratio of 5:7 of nanoparticle: buffer. See Table 4a for mixing parameters. The resulting dilute nanoparticles were then buffer exchanged and concentrated using tangential flow filtration (TFF) into a final buffer containing 5 mM sodium acetate pH 5.0. Then a 70% sucrose solution in 5 mM acetate buffer at pH 5 is subsequently added.
The resulting nanoparticles at a lipid concentration of 7.33 mg/mL in 5 mM acetate (pH 5) and 75 g/L sucrose were mixed with mRNA (luciferase or CFTR) at a concentration of 0.625 mg/mL in 42.5 mM sodium acetate pH 5.0, with N: P of 4.93. The nanoparticle solution and […] were mixed using a multi-inlet vortex mixer at a 3:2 volumetric ratio of nanoparticle:mRNA. Once loaded with mRNA, these intermediate nanoparticles underwent a 300 second residence time prior addition of neutralization buffer containing 120 mM TRIS pH 8.12 at a volumetric ratio of 5:1 of nanoparticle: buffer.
For HeLa studies evaluating CFTR protein expression, the intermediate nanoparticle formulation (1 mL, 0.415 mg mRNA) is mixed with a buffer containing 20 mM TRIS (pH 7.5), 0.9 mg/mL PEG-DMG-2K and lipid amine SA52 (647.1 nmol) at a volumetric ratio of 6:1 of nanoparticle: buffer. The resulting nanoparticle suspension underwent concentration using a centrifugal filtration device (100 kDa molecular weight cut-off) and was diluted in running buffer (20 mM TRIS, 14.3 mM sodium acetate, and 32 g/L sucrose, pH 7.5) with a 300 mM NaCl solution to a final buffer matrix containing 70 mM NaCl. […]

CC(C)CCC[C@@H](C)[C@H]1CC[C@H]2[C@@H]3CC=C4C[C@@H](OC(=O)CCC(=O)N5CCN(C)CCN(C)CC5)CC[C@]4(C)[C@H]3CC[C@]12C [SA52, (3S,8S,9S,10R,13R,14S,17R)-10,13-Dimethyl-17-((R)-6-methylheptan-2-yl)-2,3,4,7,8,9,10,11,12,13,14,15,16,17-tetradecahydro-1H-cyclopenta[a]phenanthren-3-yl 4-(4,7-dimethyl-1,4,7-triazonan-1-yl)-4-oxobutanoate]
Average fold-change in CFTR signal intensity per cell compared to buffer control ± standard deviation (HeLa cells [1]): 3.4 ± 0.5 fold-change | Average fold-change in CFTR signal intensity per cell ± standard deviation (HeLa cells [2]; LNP IL1:Lipid Amine:DPPC:Chol:PL1 with CFTR mRNA): 9.3 ± 1.2 fold-change | Average fold-change in CFTR signal intensity per cell ± standard deviation (HeLa cells [2]; LNP IL1:Lipid Amine:DSPC:Chol:PL1 with CFTR mRNA): 2.3 ± 0.1 fold-change | Diameter ([3]; CFTR mRNA nanoparticle with lipid amine (IL1:DSPC:cholesterol:PEG-DMG-2K core), DLS): 72.4 nm | PDI ([3]; CFTR mRNA nanoparticle with lipid amine, DLS): 0.11 | % Encapsulation (Ribogreen) ([3]; CFTR mRNA nanoparticle with lipid amine, Ribogreen assay): 96.6%
